Three compounds from ChEMBL document CHEMBL6087458, “The Discovery of a Novel AXL/Triple Angiokinase Inhibitor Based on 6-Chloro-Substituted Indolinone and Side Chain Methyl Substitution Inhibiting Pancreatic Cancer Growth and Metastasis” (J Med Chem, 2025) can be followed below.

One series has as its system A549. The series is described as follows: cells. Conditions: Homo sapiens, A549, 72 h.
A short description of the next series: cells. To be noted: Homo sapiens, CDDP-resistant A549 cell, 72 h.
Series [1] is described as follows: Cytotoxicity against human HK-2 cells assessed as inhibition of cell growth. It counts as toxicity, cell-based.
Series [2] can be described thus: AUC (0 to last) in Sprague-Dawley rat at 5 mg/kg, iv. It counts as ADME, organism-based. Conditions: in vivo, iv, 5 mg/kg.
The test system of a further series is SW480. The series is described as follows: cells. Conditions: Homo sapiens, SW480, 72 h.
Series [3] can be described thus: Cytotoxicity against human HEK293 cells assessed as inhibition of cell growth. It counts as toxicity, cell-based.
Series [4] is described as follows: Clearance in Sprague-Dawley rat at 5 mg/kg, iv. It counts as ADME, organism-based. To be noted: in vivo.
Series [5] can be described thus: Metabolic stability in rat liver microsome assessed as half life measured upto 240 mins by HPLC analysis. Format: ADME. Conditions: liver microsomes. (Microsomes from liver hold many membrane-bound enzymes, among them those of drug oxidation.)
The nature of series [6]: Cytotoxicity against human HUVEC cells assessed as cell viability incubated for 72 hrs by MTT assay. Format: toxicity, cell-based.
Series [7] can be described thus: Cytotoxicity against human HaCaT cells assessed as inhibition of cell growth. It counts as toxicity, cell-based.
Series [8] addresses Tyrosine-protein kinase receptor UFO (Homo sapiens) (UniProt P30530). To be noted: dose 100.0 nM.
Description: Inhibition of AXL (unknown origin) at 100 nM by envision reader analysis relative to control
A short description of series [9]: Half life in Sprague-Dawley rat at 50 mg/kg, po. Format: ADME, organism-based. To be noted: in vivo.
Another series has as its system A549/TR. Nature of the series: cells. To be noted: Homo sapiens, 72 h.
Series [10] is described as follows: Oral bioavailability in Sprague-Dawley rat at 50 mg/kg. Format: ADME, organism-based. Conditions: in vivo, po, 50 mg/kg.
Series [11] has as its system BXPC-3. The series is described as follows: Antitumor activity against human BXPC-3 cells xenografted in mouse assessed as reduction in tumor weight at 50 mg/kg, po administered for 14 days. Format: functional. Also noted: scale not given: the % may be the effect or the level left. Conditions: time 14 day. (In general: In xenograft studies the graft and the host belong to different species.)

The next series deals with MKN-45. Nature of the series: cells. To be noted: Homo sapiens, MKN-45, 72 h.
Another series has as its system NCI-H1975. Nature of the series: cells. Conditions: Homo sapiens, NCI-H1975, 72 h.
The next series concerns MDA-MB-231. The series is described as follows: cells. To be noted: Homo sapiens, MDA-MB-231, 72 h.
The nature of series [12]: Cytotoxicity against mouse NIH/3T3 cells assessed as cell viability incubated for 72 hrs by MTT assay. It counts as toxicity, cell-based, NIH3T3. Background: Tetrazolium dyes change colour on reduction, which living cells bring about.
A short description of series [13]: AUC (0 to last) in Sprague-Dawley rat at 50 mg/kg, po. Format: ADME, organism-based. Conditions: in vivo, po, 50 mg/kg.
Series [14] is described as follows: Volume of distribution at steady state in Sprague-Dawley rat at 5 mg/kg, iv. It counts as ADME, organism-based. Conditions: in vivo, read-out: Vdss.
Series [15] relates to Osimertinib-resistant NCI-H1975 cell. The series is described as follows: cells. To be noted: Homo sapiens, 72 h.
The next series has as its system PC-9. Nature of the series: cells. Conditions: Homo sapiens, PC-9, 72 h.
The test system of series [16] is BXPC-3. The series is described as follows: Antitumor activity against human BXPC-3 cells xenografted in mouse assessed as tumor growth inhibition at 50 mg/kg, po administered for 14 days. Format: functional. To be noted: BXPC-3, 336 h, time 14 day, read-out: TGI.
Series [17] in a line: Half life in Sprague-Dawley rat at 5 mg/kg, iv. It counts as ADME, organism-based. Conditions: in vivo.
A short description of series [18]: Cmax in Sprague-Dawley rat at 50 mg/kg, po. Format: ADME, organism-based. Conditions: in vivo.
A short description of series [19]: Tmax in Sprague-Dawley rat at 50 mg/kg, po. It counts as ADME, organism-based. Conditions: in vivo.
Series [20] can be described thus: Cytotoxicity against human MCF-10A cells assessed as inhibition of cell growth. Format: toxicity, cell-based.
Series [21] relates to BXPC-3. The series is described as follows: cells. Conditions: Homo sapiens, BXPC-3, 72 h.
Description: Antiproliferative activity against human BXPC-3 cells assessed as cell viability incubated for 72 hrs by MTT assay

Some results are limits rather than exact numbers.

Sequence of Tyrosine-protein kinase receptor UFO (Homo sapiens) (P30530 whole entry): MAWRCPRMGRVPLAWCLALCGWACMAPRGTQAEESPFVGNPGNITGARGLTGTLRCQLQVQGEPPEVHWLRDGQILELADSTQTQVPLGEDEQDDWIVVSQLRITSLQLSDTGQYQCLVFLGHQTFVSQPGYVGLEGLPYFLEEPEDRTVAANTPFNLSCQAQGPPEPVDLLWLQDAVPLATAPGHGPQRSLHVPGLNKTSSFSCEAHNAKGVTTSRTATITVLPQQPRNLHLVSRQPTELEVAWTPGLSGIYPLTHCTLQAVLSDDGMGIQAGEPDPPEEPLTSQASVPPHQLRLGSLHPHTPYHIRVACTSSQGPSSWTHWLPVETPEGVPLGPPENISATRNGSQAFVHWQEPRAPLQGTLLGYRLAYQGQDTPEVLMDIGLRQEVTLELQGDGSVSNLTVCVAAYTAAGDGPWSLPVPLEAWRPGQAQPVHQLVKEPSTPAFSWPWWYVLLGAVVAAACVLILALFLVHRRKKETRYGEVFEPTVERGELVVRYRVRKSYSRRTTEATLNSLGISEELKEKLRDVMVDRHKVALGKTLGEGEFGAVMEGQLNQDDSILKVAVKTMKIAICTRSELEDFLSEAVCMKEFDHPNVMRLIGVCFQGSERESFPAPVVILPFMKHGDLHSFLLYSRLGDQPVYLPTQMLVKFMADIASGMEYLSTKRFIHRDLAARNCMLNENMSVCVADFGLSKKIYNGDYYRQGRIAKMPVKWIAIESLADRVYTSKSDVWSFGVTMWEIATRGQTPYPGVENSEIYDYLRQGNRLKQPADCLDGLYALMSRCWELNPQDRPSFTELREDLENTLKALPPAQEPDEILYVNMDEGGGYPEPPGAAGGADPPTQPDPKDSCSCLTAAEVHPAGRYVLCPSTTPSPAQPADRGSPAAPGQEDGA
Description for A549/TR: Antiproliferative activity against human A549/Taxol cells assessed as cell viability incubated for 72 hrs by MTT assay
Description for MDA-MB-231: Antiproliferative activity against human MDA-MB-231 cells assessed as cell viability incubated for 72 hrs by MTT assay
Description for MKN-45: Antiproliferative activity against human MKN-45 cells assessed as cell viability incubated for 72 hrs by MTT assay
Description for PC-9: Antiproliferative activity against human PC-9 cells assessed as cell viability incubated for 72 hrs by MTT assay
Description for SW480: Antiproliferative activity against human SW480 cells assessed as cell viability incubated for 72 hrs by MTT assay

As usually defined, the IC50 is the concentration at which inhibition is half-maximal. `CC(=O)O[C@H]1C(=O)[C@@]2(C)[C@H]([C@H](OC(=O)c3ccccc3)[C@]3(O)C[C@H](OC(=O)[C@H](O)[C@@H](NC(=O)c4ccccc4)c4ccccc4)C(C)=C1C3(C)C)[C@]1(OC(C)=O)CO[C@@H]1C[C@@H]2O` [PACLITAXEL]: in the series on A549, the IC50 amounted to 1.34 µM.

In general, clearance refers to the rate of elimination divided by the concentration. As a reminder, the half-life is how long it takes for the measured level to halve. As usually defined, the inhibition is the change of the read-out against control, counted positive when it falls. As a reminder, the Cmax is the peak of the concentration-time curve. One may read the Tmax as the time from dosing to the highest level. As for `COC(=O)c1ccc2c(c1)NC(=O)/C2=C(\Nc1ccc(N(C)C(=O)CN2CCN(C)CC2)cc1)c1ccccc1` [NINTEDANIB], the IC50 is over 10 µM with A549; over 10 µM in the series “cells”; 2.87 µM in [1]; over 10 µM in the series with SW480; 3.46 µM in series [3]; over 10 µM in series [7]. The IC50 in the series with A549/TR is 10 µM; in the series on MKN-45, over 10 µM; with NCI-H1975 it was over 10 µM; in the series with MDA-MB-231 it was over 10 µM; in [15], over 10 µM; with PC-9 it was over 10 µM. The IC50 was over 10 µM in [20] and 5.34 µM with BXPC-3 [21]. For the same compound, the AUClast in series [2] was 749 ng·h/mL; in series [13], 64.2 ng·h/mL. In addition, the clearance in [4] turned out to be 111 mL/min/kg. Besides, the values for the half-life in series [5], in series [9] and in series [17] were 0.194 h, 3.99 h and 1.76 h, respectively. Besides, the IC50 at 72 h was 3.69 µM in [6] and 4.34 µM in [12]. For the same compound, the inhibition in series [8] turned out to be 32.1%. Moreover, in [10], the F was 7.91%. The Activity with BXPC-3 [11] stood at 55.84%. The Vd in series [14] is 7.91 L/kg. For the same compound, the inhibition in vivo at 50 mg/kg with BXPC-3 [16] is 68.1%. For the same compound, in [18], the highest level (Cmax) was 64.2 ng/mL. Further, the Tmax in [19] worked out at 2 h.

As to `CC(C(=O)N(C)c1ccc(N/C(=C2\C(=O)Nc3cc(Br)ccc32)c2ccccc2)cc1)N1CCCN(C)CC1` (racemic), the IC50 at 72 h came to 2.15 µM in [6] and 3.9 µM in series [12]. Also, the IC50 came out at 1.86 µM with MDA-MB-231 and 1.95 µM with BXPC-3 [21].
